According to patent publication US20230406812A1, “NOVEL AMINOAROMATIC COMPOUND OR PHARMACEUTICALLY ACCEPTABLE SALT THEREOF, AND PHARMACEUTICAL COMPOSITION FOR PREVENTING OR TREATING NEURODEGENERATIVE DISEASES COMPRISING SAME AS ACTIVE INGREDIENT” (INSTITUTE FOR BASIC SCIENCE, priority 2020, published 2023):

Each compound was assayed against hemoglobin (Hb) (Homo sapiens, UniProt P68871+P69905) (assay: Hydrogen peroxide scavenging ability with hemoglobin (Amplex Red H2O2 assay)). Conditions: 10 μM H2O2, 80 μg/ml hemoglobin, 37° C. about 30 minutes.
Assay type: biochemical
Procedure: Amplex Red is a means which turns into a fluorescent substance called resorufin when horse radish peroxidase (HRP) and H2O2 exist together and allows measurement of changes in H2O2, that is, H2O2 assay. […] The experiment was performed by adding hemoglobin instead of HRP to the H2O2 assay by Amplex Red (FIG. 1). The final concentration of each substance was 10 μM of H2O2 and 80 μg/ml of hemoglobin, and the aminoaromatic compound of the present invention was treated by concentration. After the reaction at 37° C. for about 30 minutes as such, fluorescence (excitation: 540 nm, emission: 580 nm) was measured by a microplate reader. At this time, it can be said that fluorescence is proportional to the amount of H2O2. Normalization was performed for each concentration based on a fluorescence value without a drug, and a value at which the fluorescence value was 50%, that is, a half maximal effective concentration (EC50) was determined by a program through statistical processing. The results are shown in the following Table 2, and AAD-2004 was used as a control group.

hemoglobin (Hb), sequence (P69905 2-142 limits assumed): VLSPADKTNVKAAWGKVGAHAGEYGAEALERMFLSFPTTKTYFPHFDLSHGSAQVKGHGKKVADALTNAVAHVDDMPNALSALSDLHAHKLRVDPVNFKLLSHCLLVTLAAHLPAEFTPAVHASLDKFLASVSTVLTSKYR
hemoglobin (Hb), sequence (P68871 2-147 limits assumed): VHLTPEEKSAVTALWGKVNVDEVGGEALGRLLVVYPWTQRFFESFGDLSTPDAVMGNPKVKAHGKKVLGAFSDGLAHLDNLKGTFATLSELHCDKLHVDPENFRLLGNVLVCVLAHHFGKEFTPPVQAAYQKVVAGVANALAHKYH

| SMILES | EC50 |
| --- | --- |
| CN(C)c1ccc(NCCc2cccc(C(F)(F)F)c2)cc1 [Example 3] | 560 nM |
| CN(C)c1ccc(NCCc2ccccc2Cl)cc1 [Example 4] | 580 nM |
| CN(C)c1ccc(NCCc2cccc(Cl)c2)cc1 [Example 5] | 430 nM |
| CN(C)c1ccc(NCCc2ccc(Cl)cc2)cc1 [Example 6] | 270 nM |
| COc1ccc(CCNc2ccc(N(C)C)cc2)cc1 [Example 7] | 460 nM |
| CN(C)c1ccc(NCCc2ccc(F)cc2)cc1 [Example 8] | 410 nM |
| Nc1ccc(NCCc2ccc(C(F)(F)F)cc2)cc1 [Example 9] | 300 nM |
| Nc1ccc(NCCc2ccccc2C(F)(F)F)cc1 [Example 12] | 830 nM |

Results, then the compound that gave them:

| EC50 | SMILES |
| --- | --- |
| 720 nM | Nc1ccc(NCCc2cccc(C(F)(F)F)c2)cc1 [Example 13] |
| 780 nM | Nc1ccc(NCCc2cccc(F)c2)cc1 [Example 14] |
| 590 nM | Nc1ccc(NCCc2ccccc2Cl)cc1 [Example 15] |
| 210 nM | CNc1ccc(NCCc2ccccc2C(F)(F)F)cc1 [Example 18] |
| 190 nM | CNc1ccc(NCCc2cccc(C(F)(F)F)c2)cc1 [Example 19] |
| 260 nM | CNc1ccc(NCCc2cccc(Cl)c2)cc1 [Example 20] |
| 520 nM | CNc1ccc(NCCc2ccc(Cl)cc2)cc1 [Example 22] |
| 620 nM | CNc1ccc(NCCc2ccc(OC)cc2)cc1 [Example 23] |
| 610 nM | CNc1ccc(NCCc2cccc(OC)c2)cc1 [Example 24] |

Same assay, conditions: (DMSO); 10 μM H2O2, 80 μg/ml hemoglobin, 37° C. about 30 minutes

| EC50 | SMILES |
| --- | --- |
| 300 nM | CN(C)c1ccc(NCCCc2ccc(C(F)(F)F)cc2)cc1 [Example 10] |
| 540 nM | Nc1ccc(NCCCc2ccc(C(F)(F)F)cc2)cc1 [Example 11] |
| 300 nM | CNc1ccc(NCCCc2ccc(C(F)(F)F)cc2)cc1 [Example 17] |
